Test results published in patent US5449814A, “Lignan analogues, methods of preparation thereof and anti-hyperlipemic agents” (Shionogi & Co., Ltd., priority 1991, dated 1995).
Like-named read-outs stand apart in the source and are kept apart here.

How the values were obtained:
cholesterol in serum = experiment: Hypocholesterolemic effect in cholesterol-fed mice; format: in vivo, Male ICR mice; conditions: Mus musculus, po, 168 h, diet 1% cholesterol and 0.5% sodium cholate with 0.12% test compound, 7 days
Procedure: Hypocholesterolemic effect
Male ICR mice weighing 30 to 40 g were allowed to access to a diet containing 1% cholesterol and 0.5% sodium cholate supplemented with 0.12% of a test compound (no test compound in control group) ad libitum for 7 days. Then, the blood was taken and total cholesterol in serum was determined by the method of Allain (Clin. Chem., Vol. 20, 470 (1974)).
Total amount of VLDL cholesterol and LDL cholesterol was obtained by subtracting HLD cholesterol from total cholesterol. HLD cholesterol was quantified by the method of Ash and Hentschel et al. (Clin. Chem., Vol. 24, 2180 (1978)).
Hypocholesterolemic effect of a test compound was evaluated based on % reduction in cholesterol calculated using the equation shown below.

LDL = experiment: Inhibitory effect on oxidative modification of LDL (copper-induced, TBA reactive substances); format: biochemical, New Zealand albino rabbits; conditions: rabbit LDL 0.2 mg protein/ml, 0.5 μM Cu^2+, 37° C., 24 hours; read-out: Inhibition of LDL oxidation IC50
Procedure: Inhibitory effect on oxidative modification of LDL
According to the method by Kita et al. (Proc. Natl. Acad. Sci., U.S.A, Vol. 84, 5928 (1987)), the experiment was proceeded as follows.
LDL was isolated from the blood of New Zealand albino rabbits fed with a diet containing 0.5% cholesterol for 3 weeks, and dissolved in phosphate-buffered physiological saline (final LDL concentration: 0.2 mg protein/ml). To this solution, each test compound in ethanol was added and then copper sulfate (final Cu^2+ concentration: 0.5 μM) was added thereto. The mixture was incubated at 37° C. for 24 hours.
After incubation, the content of lipid peroxides in each solution was determined as thiobarbituric acid reactive substances (TBA reactive substances). Concentration for 50% inhibition (IC50) was obtained from a linear regression curve of concentration of a compound versus % inhibition of oxidative modification of LDL. To quantify TBA reactive substances, proteins were removed from the solution after incubation, and the supernatant was examined for the content of TBA reactive substances by TBA method.

[1] = serum, read-out: Total Chol. reduction (%)
[2] = total minus HDL cholesterol, read-out: (VLDL + LDL) Chol. reduction (%)

IC50 (LDL) [nM] | SMILES | inhibition in vivo at 0.12 % in diet (cholesterol in serum; [1]) [%] | inhibition in vivo at 0.12 % in diet (cholesterol in serum; [2]) [%]
400 | CCC(CC)CC(=O)c1c(C(=O)OC)c(-c2ccc(OC)c(OC)c2)c2c(OC)c(OC)c(OC)cc2c1O [Example 1, 1-(3,4-dimethoxyphenyl)-3-(3-ethyl-1-oxopentyl)-4-hydroxy-2-methoxycarbonyl-6,7,8-trimethoxynaphthalene] | 35 | 72
1240 | COC(=O)c1c(C(C)=O)c(O)c2cc(OC)c(OC)c(OC)c2c1-c1ccc(OC)c(OC)c1 [Example 2, 3-Acetyl-1-(3,4-dimethoxyphenyl)-4-hydroxy-2-methoxycarbonyl-6,7,8-trimethoxynaphthalene] | 22 | 59
120 | COC(=O)c1c(C(=O)C(C)C)c(O)c2cc(OC)c(OC)c(OC)c2c1-c1ccc(OC)c(OC)c1 [Example 3, 1-(3,4-Dimethoxyphenyl)-4-hydroxy-2-methoxycarbonyl-3-(2-methyl-1-oxopropyl)-6,7,8-trimethoxynaphthalene] | 21 | 57
650 | CCC(CC)C(=O)c1c(C(=O)OC)c(-c2ccc(OC)c(OC)c2)c2c(OC)c(OC)c(OC)cc2c1O [Example 4, 1-(3,4-Dimethoxyphenyl)-3-(2-ethyl-1-oxobutyl)-4-hydroxy-2-methoxycarbonyl-6,7,8-trimethoxynaphthalene] | 28 | 78
460 | COC(=O)c1c(C(=O)C2CCCCC2)c(O)c2cc(OC)c(OC)c(OC)c2c1-c1ccc(OC)c(OC)c1 [Example 5, 3-Cyclohexanoyl-1-(3,4-dimethoxyphenyl)-4-hydroxy-2-methoxycarbonyl-6,7,8-trimethoxynaphthalene] | 22 | 61
180 | COC(=O)c1c(C(=O)c2ccccc2)c(O)c2cc(OC)c(OC)c(OC)c2c1-c1ccc(OC)c(OC)c1 [Example 6, 3-Benzoyl-1-(3,4-dimethoxyphenyl)-4-hydroxy-2-methoxycarbonyl-6,7,8-trimethoxynaphthalene] | 16 | 55
2580 | COC(=O)c1c(C(=O)CC2CCCCC2)c(O)c2cc(OC)c(OC)c(OC)c2c1-c1ccc(OC)c(OC)c1 [Example 7, 3-(2-Cyclohexyl-1-oxoethyl)-1-(3,4-dimethoxyphenyl)-4-hydroxy-2-methoxycarbonyl-6,7,8-trimethoxynaphthalene] | 23 | 59
4670 | COC(=O)c1c(C(=O)Cc2ccccc2)c(O)c2cc(OC)c(OC)c(OC)c2c1-c1ccc(OC)c(OC)c1 [Example 8, 1-(3,4-Dimethoxyphenyl)-4-hydroxy-2-methoxycarbonyl-3-(2-phenyl-1-oxoethyl)-6,7,8-trimethoxynaphthalene] | 17 | 50
 | CCC(CC)C(=O)c1c(C(=O)OC)c(-c2ccc(OC)c(OC)c2)c2cc3c(cc2c1O)OCO3 [Example 33, 1-(3,4-Dimethoxyphenyl)-3-(2-ethyl-1-oxobutyl)-4-hydroxy-2-methoxycarbonyl-6,7-(methylenedioxy)naphthalene] | 19 | 50
 | COC(=O)c1c(C(=O)c2ccc(Cl)cc2)c(O)c2cc3c(cc2c1-c1ccc(OC)c(OC)c1)OCO3 [Example 34, 3-(4-Chlorobenzoyl)-1-(3,4-dimethoxyphenyl)-4-hydroxy-2-methoxycarbonyl-6,7-(methylenedioxy)naphthalene] | 23 | 53
 | CCC(CC)CC(=O)c1c(C(=O)OC)c(-c2ccc3c(c2)OCCO3)c2c(OC)c(OC)c(OC)cc2c1O [Example 60, 1-[3,4-(Ethylenedioxy)phenyl]-3-(3-ethyl-1-oxopentyl)-4-hydroxy-2-methoxycarbonyl-6,7,8-trimethoxynaphthalene] | 6 | 33
